Source: publication PMC6397177, “An uncharacterized FMAG_01619 protein from Fusobacterium mortiferum ATCC 9817 demonstrates that some bacterial macrodomains can also act as poly-ADP-ribosylhydrolases” (Scientific Reports, 2019)

How the values were obtained:
hTARG1 = target: T1, hTARG1 (Homo sapiens, UniProt Q9Y530); assay: thermal shift assay, SYPRO Orange; format: binding; details: 100 mM phosphate pH 7.0; ligand up to 50 mM
T1 construct: gene OARD1; synthetic gene in pET28a; E. coli Rosetta2(DE3); tag removal not clearly told
T1 sequence (Q9Y530 2-152): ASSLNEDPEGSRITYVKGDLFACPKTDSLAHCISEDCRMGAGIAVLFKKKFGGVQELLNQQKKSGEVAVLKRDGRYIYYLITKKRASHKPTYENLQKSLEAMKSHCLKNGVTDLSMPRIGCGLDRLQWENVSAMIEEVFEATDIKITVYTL

FmTARG1 [1] = target: T2, FmTARG1 (Fusobacterium mortiferum, UniProt A0ABN5JAQ3); assay: thermal shift assay, SYPRO Orange; format: binding; details: 100 mM phosphate pH 7.0; ligand up to 50 mM
T2 construct: gene C4N19_10685; synthetic gene in pSol-AFV, AFV-tag removed with TEV protease; expressed in E. coli 10G
T2 sequence (A0ABN5JAQ3 2-142 limits assumed): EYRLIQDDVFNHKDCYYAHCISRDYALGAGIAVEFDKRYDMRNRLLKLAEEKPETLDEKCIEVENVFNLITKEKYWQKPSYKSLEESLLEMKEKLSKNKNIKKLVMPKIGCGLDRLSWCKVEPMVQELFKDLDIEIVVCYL

FmTARG1 [2] = target: T2, FmTARG1; assay: HPLC deacetylation assay; format: biochemical; details: competitive against OAADPr; Bis-Tris pH 7.3, 300 mM NaCl, 25 °C

Compound	dTm (hTARG1)	dTm (FmTARG1 [1])	Ki (FmTARG1 [2])
Nc1ncnc2c1ncn2[C@@H]1O[C@H](COP(=O)(O)OP(=O)(O)O)[C@@H](O)[C@H]1O [ADP]	AMP and ADP, also bind to both enzymes in a dose-dependent manner	AMP and ADP, also bind to both enzymes in a dose-dependent manner	–
Nc1ncnc2c1ncn2[C@@H]1O[C@H](COP(=O)(O)OP(=O)(O)OC[C@H]2OC(O)[C@H](O)[C@@H]2O)[C@@H](O)[C@H]1O (some centres unmarked) [ADPr]	–	–	203 ± 10 µM
Nc1ncnc2c1ncn2[C@@H]1O[C@H](COP(=O)(O)O)[C@@H](O)[C@H]1O [AMP]	AMP and ADP, also bind to both enzymes in a dose-dependent manner	AMP and ADP, also bind to both enzymes in a dose-dependent manner	–
